How the values were obtained:
[1] = test system: NMDARs (GluN1a, GluN2a, GluN2b); experiment: Surface expression of NMDARs in HEK293T cells co-transfected with NMDARs and TRPM2 (WB); type: cell-based, human; settings: 1 μM compound overnight
Protocol: FIGS. 4K-4N show the surface expression of NMDARs in HEK-293T cells co-transfected with TRPM2 or EGFP with the treatment of PKC activator PMA (FIG. 4K) and inhibitor Stausporine (FIG. 4L). Membrane (Mem) and cytocol (Cyto) NMDARs were analyzed and averaged from 3 independent experiments with 1 μM PMA treatment (FIG. 4N) or 1 μM Stausporine treatment (FIG. 4L) for overnight. Pan-cadherin and β-tubulin were loading controls for membrane and cytosol protein, respectively (*, p<0.05, **, p<0.01, ***, p<0.001, unpaired t-test, mean±SEM, n=3/group).
FIGS. 5C-5F effects of TAT-EE3 on surface expression of NMDARs. HEK293T cells co-transfected with NMDARs with TRPM2 (+M2) or EGFP vector (Con) were treated with 10 μM TAT-SC (FIG. 5C) or TAT-EE3 (FIG. 5D) overnight. Membrane (Mem) and cytosol (Cyto) proteins of NMDARs in TAT-SC (FIG. 5E) and TAT-EE3 (FIG. 5F) treated groups were assessed by WBs and analyzed in reference to Pan-cadherin or β-tubulin (**, p<0.01, ***, p<0.001, unpaired t-test, mean±SEM). All the results were replicated in at least 3 independent experiments.
Pan-cadherin and β-tubulin were used as loading control for membrane and cytosolic protein extraction.
were ordered from GenScript Biotech, and dissolved in PBS to make a stock concentration at 10 mM. HEK-293T cells or isolated neurons were treated with TAT-SC or TAT-EE3 at a concentration of 10 μM for at least 8 h prior to use. Mice were injected with TAT-SC or TAT-EE3 intraperitoneally (ip) at a dose of 100 nmol/kg.
HEK293T cells were cultured in Dulbecco's Modified Eagle's medium (DMEM) (Thermal Fisher Scientific, 12100-038) supplemented with 10% BGS (HyClone, SH30541.03) and 0.5% penicillin/streptomycin (Thermal Fisher Scientific, 15140-122) at 37° C. and 5% CO2. 8 h prior to transfection, culture medium was replaced with DMEM supplemented only with 2.5% BGS. Cells were transfected when at a confluence about 80-90% using Lipofectamine® 3000 Transfection Kit (Thermal Fisher Scientific, 2232162) based on instruction.
NP-40/Triton lysis buffer ([…], 1% Triton™ X-100, 150 mM NaCl, 1 mM EDTA, 50 mM Tris, pH=8.0) containing proteinase inhibitors and phosphatase inhibitors was used to lyse both cultured cells and frozen brain tissue. Surface protein was extracted using Pierce® Cell Surface Protein Isolation Kit (Thermal Fisher Scientific, 89881) in transfected HEK-293T cells, and using ProteoExtract™ Native Membrane Protein Extraction Kit (Calbiochem, 444810) in brain tissue based on instructions. […] Protein concentration was measured using Pierce™ Rapid Gold BCA Protein Assay Kit.
30-50 μg of total protein was loaded and separated proteins were transferred to Nitrocellulose membranes. […] Band intensity was quantified using ImageJ software and normalized with appropriate loading controls.

NMDARs = experiment: NMDAR currents in cultured cortical neurons of WT and TRPM2-KO mice (whole cell recording); type: cell-based, mouse; settings: for NMDAR current amplitude in WT neurons: 1 μM compound overnight, 10 μM NMDA, -80 mV, compared with TRPM2-KO neurons
Protocol: FIGS. 4O and 4P show the effects of stausporine on NMDAR currents recorded from cortical neurons cultured for 14 days. FIG. 4O show representative NMDAR currents elicited at −80 mV by 10 μM NMDA in WT and TRPM2-KO (gM2KO) neurons treated with or without Stausporine at 1 μM for overnight. FIG. 4P show the average current amplitude (ns, p>0.05; **, p<0.01; ANOVA, Bonferroni's test; mean±SEM, n=11, 10, 10, 12 neurons from 2 mice respectively).
FIG. 4S show representative NMDAR currents elicited by NMDA in WT and TRPM2-KO neurons treated with or without endosidin2 at 1 μM for overnight.
FIGS. 5I-5K show the effects of TAT-EE3 on PKC induced changes of NMDAR currents recorded in cortical neurons of WT and TRPM2-KO. Neurons were incubated with 10 μM TAT-SC or TAT-EE3 for overnight before current recording. FIG. 5I show representative NMDAR currents elicited by 10 μM NMDA at −80 mV before and after PMA (1 μM) perfusion for 20 s. TAT-SC or TAT-EE3 10 μM was included in the pipette solution for current recording.
FIGS. 6A and 6B show the effects of TAT-EE3 on NMDAR currents in WT and gM2KO cortical neurons cultured for 14 days. […] TAT-SC or TAT-EE3 10 μM was included in the pipette solution during current recording.
Mice pups at P0 were euthanized based on animal protocol. Whole brain was dissected out immediately and immersed in ice-cold Hank's Balanced Salt Solution (HBSS). Meninges were removed thoroughly, and tissue of different brain areas was taken based on purposes. Brain tissue was cut into small pieces and digested with 0.25% trypsin (Thermal Fisher Scientific, 15090-046) in HBSS at 37° C. for 20 min. Digestion solution was quickly removed, and tissue pellets are washed with Neurobasal® Medium (Thermal Fisher Scientific, 21103-049) for 3 times. Cells were resuspended with appropriate amount of Neurobasal® Medium supplemented with 2% B27® supplement (Thermal Fisher Scientific, 17504-044), 3% horse serum (Thermal Fisher Scientific, 16050114), 0.25% L-glutamine (Thermal Fisher Scientific, 25030-081) and 1% penicillin/streptomycin (Thermal Fisher Scientific, 15140-122). Isolated cells were counted and plated on coverslips pre-coated with poly-L-lysine (Sigma-Aldrich, P4707) at a density about 500×10^3 cells/cm2 for OGD and H2O2 treatment, and 100×10^3 cells/cm2 for current recording. Cytosine arabinoside (Sigma-Aldrich, C1768) was added to maintain a concentration at 1 μM to inhibit the proliferation of non-neuronal cells. 24 h after plating, culture medium was changed to Neurobasal® Medium supplemented with 2% B27® supplement, 0.25% L-glutamine and 1% penicillin/streptomycin. The concentration of Cytosine arabinoside (araC) was increased to 2 μM. Medium was changed every 3 days. OGD and H2O2 treatment was conducted at 7th day of culture, and current recording was conducted at 7th, 10th and 14th day of culture.
Whole cell currents were recorded using an Axopatch 200B amplifier. Data were digitized at 10 or 20 kHz and digitally filtered offline at 1 kHz. Patch electrodes were pulled from borosilicate glass and fire-polished to a resistance of ˜3 MΩ when filled with internal solutions. Series resistance (Rs) was compensated up to 90% to reduce series resistance errors to <5 mV. Cells in which Rs was >10 MΩ were discarded (Du, J., Xie, J., and Yue, L. (2009). Modulation of TRPM2 by acidic pH and the underlying mechanisms for pH sensitivity. J Gen Physiol 134, 471-88).
For heterologous expression, transfected HEK-293 cells were identified by GFP fluorescence. TRPM2 current recording in transfected HEK-293T cells was performed as we previously reported (Du, J., Xie, J., and Yue, L. (2009). Intracellular calcium activates TRPM2 and its alternative spliced isoforms. Proceedings of the National Academy of Sciences 107, 7239-44; Du, J., Xie, J., and Yue, L. (2009). Modulation of TRPM2 by acidic pH and the underlying mechanisms for pH sensitivity. J Gen Physiol 134, 471-88). […]

SMILES	surface expression level of NMDARs in cells transfected with NMDARs and TRPM2 [1]	NMDAR current amplitude in WT neurons (NMDARs)	increase of NMDA-induced current by PMA (NMDARs; WT neurons, PMA 1 μM perfusion for 20 s)	NMDA-induced current after PMA perfusion (NMDARs; WT neurons, PMA 1 μM perfusion for 20 s, before PMA 1542.1±117.1 pA)
CN[C@@H]1C[C@H]2O[C@@](C)([C@@H]1OC)n1c3ccccc3c3c4c(c5c6ccccc6n2c5c31)C(=O)NC4 [stausporine, reference compound]	abolished the enhanced surface expression level	normalized NMDAR current amplitude in the WT neuron to the similar amplitude level of NMDAR current in TRPM2-KO neurons	–	–
CCCCCCCCCCCCCC(=O)O[C@@H]1[C@@H](C)[C@@]2(O)[C@@H](C=C(CO)C[C@]3(O)C(=O)C(C)=C[C@@H]23)[C@@H]2C(C)(C)[C@]12OC(C)=O [PMA, Phorbol-12-myristate-13-acetate, reference compound]	much higher level of surface NMDARs	–	about 1.5 fold	3642.1±180.8 pA
COc1cc(/C=N/NC(=O)c2cccc(F)c2)cc(I)c1O [Endosidin 2, reference compound]	prevented the increase	abolished the increased current amplitude	–	–

— patent US20250235501A1, “Methods and Compositions for Treating or Preventing Neurological Injury or Neurological Disorders” (University of Connecticut, priority 2024, published 2025)
